The source of these data is patent US12268210B2, “Performic acid on-site generator and formulator” (ECOLAB USA INC., priority 2015, dated 2025).

Data set [1] relates to SRB or APB populations. Nature of the data set: Micro efficacy of field-generated PFA at a salt water disposal well (serial dilution bug bottles). It is filed as cell-based. Particulars: for log reduction in microbial population: compared to incoming water, serial dilution bug bottles selecting for SRB or APB. As to the method: The peroxyformic acid generator according to the embodiments depicted in the figures having multiple inlets to provide formic acid blend (formic acid, catalyst and corrosion inhibitor) as well as hydrogen peroxide was evaluated under field conditions at a scale-up volume. The generator was used at a salt water disposal well.
The performance of the chemistry generated in the field according to Example 5 was evaluated for micro efficacy. PFA dosed at 250 ppm (˜25 ppm active) indicates at least reduction in microbial numbers equivalent to 2-3 logs, as shown in FIG. 13. In the figures the GB refers to site of treatment (gun barrel) measurement, whereas SWD refers to the disposal water measurement for micro efficacy.
The percentage reduction of microbial numbers compared to incoming water was also evaluated. Microbial numbers were monitored using traditional serial dilution bug bottles that select for SRB or APB populations.

The conditions of data set [2]: cited from earlier work; for half-life: shelf life stability, order of magnitude.

Regarding performic acid [PFA], in data set [1] (PFA dosed at 250 ppm (~25 ppm active), GB (gun barrel) and SWD (disposal water) measurements, FIG. 13), the “reduction in microbial numbers” value is on record as 2-3 logs. Also, the “log reduction in microbial population” value in data set [1] (all results) is given as 2-3 log; in data set [1] (in some case), 7 log. Further, the “time to decompose into carbon dioxide and water” value in data set [2] (ambient temperature and pressure) is listed as “within a few hours”. Besides, the half-life entry in data set [2] is on record as “minutes to hours”.

Consider `CC(=O)OO` [peracetic acid, reference compound], for which the half-life entry in data set [2] is “weeks to months”.
